# Measurements from patent publication US20180318196A1, “COMPOSITION FOR PROTECTING THE SKIN AGAINST THE EFFECTS OF POLLUTION AND USE THEREOF” (LUBRIZOL ADVANCED MATERIALS, INC., priority 2015, published 2018).
# Like-named read-outs stand apart in the source and are kept apart here.
# System: Normal Human Epidermal Keratinocytes from adult (NHEK)
# Assay: Protection from damage induced by Urban Dust, MTT cell viability assay
# Type: cell-based
# Method: The capacity of protecting skin cell cultures from damage induced by Urban Dust (UD) is evaluated. The UD used is particulate matter (PMs, one of the major air pollutants with effects on the skin) collected in an urban area, Washington DC in 1976 and 1977, with an average particle size of 10.5 μm that contain polycyclic aromatic hydrocarbons (PAHs), polychlorinated biphenyl (PCBs), nitro-PAHs, chlorinated pesticides, dioxins and heavy metals: Damage is generated by the addition of UD to the culture medium and the protection effect from damage of the tested compounds is measured by a cell viability assay.
# The viability is evaluated by MTT (3-[4,5-dimethylthiazol-2-yl]-2,5 diphenyl tetrazolium bromide), an absorbance-based cell viability method. Live cells present mitochondrial dehydrogenase activity that reduces the dye MTT to an insoluble blue colored product easily detected by absorbance, reflecting viable cells. […]
# Then, cellular viability is evaluated. […] Then, plates are shaken for 5 minutes at room temperature protected from light and absorbance read at 570 nm with wavelength correction at 630 nm, using a Microplate Absorbance Reader (Clariostar®,BMG LabTech).
# The percentage of cell viability for each condition is calculated with respect to control without pollutants (cells treated with medium alone and not treated with UD). […]
smiles,measurement,setting,value
"COc1cc2c(cc1O)CCC(C)(C)O2 [LPCH, 7-methoxy-2,2-dimethylchroman-6-ol]",viability at 50 µg/mL,"read-out: Relative Cell Viability with Respect To Control without pollutants (%) (MEAN ± SEM), 50 μg/mL LPCH + 50 μg/mL UD",85.8 ± 3.68%
same,viability at 50 µg/mL,"read-out: Relative Cell Viability with Respect To Control without pollutants (%) (MEAN ± SEM), 50 μg/mL LPCH + 100 μg/mL UD",79 ± 3.21%
